From publication PMC7926495, “Preclinical Pharmacokinetics and Biodistribution of Anticancer Dinuclear Palladium(II)-Spermine Complex (Pd2Spm) in Mice” (Pharmaceuticals, 2021)

Experiments:
[1] = mouse, in vivo
Method: After drug administration, five animals from each group were euthanized at selected time-points (0.5, 1, 6, 12, 24 and 48 h) with pentobarbital intraperitoneal injection (120 mg/kg) followed by cardiac puncture for blood collection. Blood serum was separated after leaving the blood to coagulate for 30 min at room temperature and centrifugation (at 500× g, and 4 °C for 15 min). […] Both blood serum and serum ultrafiltrate were aliquoted (50 μL) and stored at −80 °C until ICP-MS analysis. Right brain hemisphere, liver, lungs, heart, right kidney, ovaries, abdominal white adipose tissue and abdominal mammary glands were excised at the same time, washed in cold PBS, blotted dry on filter paper and weighed. […]
The mean concentrations of Pd or Pt in serum and serum ultrafiltrate were plotted logarithmically versus time. […] The area under the curve (AUC) from time zero to the last time with quantified concentration (AUC0-48h) was calculated by a linear log trapezoidal (linear up log down) method. […] The drug half-life (t1/2) was calculated as ln2/λz. The rate of total clearance (CL/F) of the compound was calculated as the administered metal dose divided by the AUC0−∞. The distribution volume based on the terminal phase (Vz/F) was calculated as dose/[λz.AUC0−∞].

H2AX histone (γH2AX) = tested on: H2AX histone (γH2AX); design: method as in PMID 21371266; conditions: cited from earlier work
plasma proteins = conditions: mouse, in vivo
Method: After drug administration, five animals from each group were euthanized at selected time-points (0.5, 1, 6, 12, 24 and 48 h) with pentobarbital intraperitoneal injection (120 mg/kg) followed by cardiac puncture for blood collection. Blood serum was separated after leaving the blood to coagulate for 30 min at room temperature and centrifugation (at 500× g, and 4 °C for 15 min). […] Both blood serum and serum ultrafiltrate were aliquoted (50 μL) and stored at −80 °C until ICP-MS analysis.
Briefly, 50 μL of blood serum, 50 μL of serum ultrafiltrate and weighed entire freeze-dried organs/tissues (up to 50 mg) were placed into 10 mL polypropylene conical tubes. In the case of liver, for which the weight surpassed 50 mg, the tissue was first pulverized with a Precellys® Evolution tissue homogenizer (Bertin-Instruments, Montigny-le-Bretonneux, France) using 2.8 mm stainless steel beads (two cycles of 10 s at 6000 rpm speed) and accurately weighed (50 mg) in tubes. Samples were digested directly in tubes with 0.9 mL of HNO3 (≥69.0% w/w) plus 0.3 mL of HCl (37% w/w) in a water bath at 90 °C for 1 h. Sample digests were cooled to room temperature, 0.5 mL of a 100 µg/L internal standards (IS) solution was added and the final volume was adjusted to 5 mL with ultrapure water (final concentration of IS = 10 µg/L). […]

HCC-1143 cells = test: In vitro cellular drug uptake/accumulation by ICP-MS; type: cell-based, human; conditions: 24 h; for dependence of cellular drug uptake on drug concentration in medium: 2-8 µM
Method: (§1) The in vitro studies were performed on human triple-negative (lack of estrogen receptors, progesterone receptors and HER2 overexpression) breast cancer cell lines MDA-MB-231 and HCC-1143, which were purchased from the Leibniz Institute DSMZ-German Collection of Microorganisms and Cell Cultures GmbH, Germany. MDA-MB-231 were cultured in DMEM-HG cell culture medium supplemented with 10% (v/v) FBS, and HCC-1143 cells were cultured in RPMI-1640 cell culture medium supplemented with 20% (v/v) FBS. Cells were maintained in a sterile environment at 37 °C with a 5% CO2 humidified atmosphere and were routinely tested for mycoplasma contamination.
(§2) The intracellular Pt and Pd accumulation in MDA-MB-231 and HCC-1143 cells was analyzed using ICP-MS. First, 3 × 10^4/cm^2 cells were seeded in T75 culture flasks and allowed to attach for 24 h. […] The cells were trypsinized, washed twice with ice-cold 0.9% saline solution, and 10^6 cells were pelleted and freeze-dried. The lyophilized cell pellets were digested and analyzed using the same analytical procedure described for the pharmacokinetic study. […] The protein concentration used for the data normalization was determined from identical samples that were prepared in parallel and quantified with the Bradford protein assay.

MDA-MB-231 cells = test: as above; type: cell-based, human; conditions: 24 h; for dependence of cellular drug uptake on drug concentration in medium: 2-8 µM
Method: as §1, §2

[2] = design: species or system Balb/c mice; conditions: mouse, in vivo; for Tmax: ip
Method: After drug administration, five animals from each group were euthanized at selected time-points (0.5, 1, 6, 12, 24 and 48 h) with pentobarbital intraperitoneal injection (120 mg/kg) followed by cardiac puncture for blood collection. Blood serum was separated after leaving the blood to coagulate for 30 min at room temperature and centrifugation (at 500× g, and 4 °C for 15 min). […] Both blood serum and serum ultrafiltrate were aliquoted (50 μL) and stored at −80 °C until ICP-MS analysis. Right brain hemisphere, liver, lungs, heart, right kidney, ovaries, abdominal white adipose tissue and abdominal mammary glands were excised at the same time, washed in cold PBS, blotted dry on filter paper and weighed. Solid tissues were freeze-dried (0.016 mBar, −80.8 °C, 48 h; Telstar®, model Cryodos Barcelona, Spain) and stored hermetically sealed at −80 °C until ICP-MS analysis.
Briefly, 50 μL of blood serum, 50 μL of serum ultrafiltrate and weighed entire freeze-dried organs/tissues (up to 50 mg) were placed into 10 mL polypropylene conical tubes. In the case of liver, for which the weight surpassed 50 mg, the tissue was first pulverized with a Precellys® Evolution tissue homogenizer (Bertin-Instruments, Montigny-le-Bretonneux, France) using 2.8 mm stainless steel beads (two cycles of 10 s at 6000 rpm speed) and accurately weighed (50 mg) in tubes. Samples were digested directly in tubes with 0.9 mL of HNO3 (≥69.0% w/w) plus 0.3 mL of HCl (37% w/w) in a water bath at 90 °C for 1 h. Sample digests were cooled to room temperature, 0.5 mL of a 100 µg/L internal standards (IS) solution was added and the final volume was adjusted to 5 mL with ultrapure water (final concentration of IS = 10 µg/L). Prior to ICP-MS analysis, samples were further diluted 5-fold with a diluent solution (2% HNO3 + 3% HCl + 10 µg/L IS). An iCAP^TM Q (Thermo Fisher Scientific, Bremen, Germany) ICP-MS was used for the determination of Pd and Pt in the obtained solutions. Calibration standards ranging from 0.025 to 100 µg/L were prepared from the 100 mg/L multi-element commercial TraceCERT®, ICH Q3D oral, Standard 2 solution. The IS solution was prepared at 100 µg/L by appropriate dilution of the ICP-MS-200.8-IS-1 solution.
The mean concentrations of Pd or Pt in serum and serum ultrafiltrate were plotted logarithmically versus time. Non-compartmental analysis was performed on sparse data with 1/Y^2 weighting, which was selected based on the highest correlation coefficients and agreement between observed versus predicted pharmacokinetic parameters. […] The area under the curve (AUC) from time zero to the last time with quantified concentration (AUC0-48h) was calculated by a linear log trapezoidal (linear up log down) method. The AUC from time zero to infinity (AUC0−∞) was extrapolated as AUC0−48 h + C48h/λz, where C48h is the last measured concentration, and λz is the elimination constant rate calculated using linear regression of the terminal portion of the log–linear serum concentration–time curve. The drug half-life (t1/2) was calculated as ln2/λz. The rate of total clearance (CL/F) of the compound was calculated as the administered metal dose divided by the AUC0−∞. The distribution volume based on the terminal phase (Vz/F) was calculated as dose/[λz.AUC0−∞].

[3] = tested on: albumin / plasma proteins; conditions: rodents, 3 h post-administration; cited from earlier work

Compound | higher accumulation of Pd relative to Pt [1] | lower accumulation of Pd than Pt (dose-normalized AUC) [1] | phosphorylation of H2AX histone (γH2AX) compared to cisplatin (H2AX histone (γH2AX)) | decrease of fraction bound to plasma proteins at 48 h compared to the preceding period (plasma proteins) | dependence of cellular drug uptake on drug concentration in medium (HCC-1143 cells) | intracellular accumulation compared to cisplatin (HCC-1143 cells; equimolar 2-8 µM) | dependence of cellular drug uptake on drug concentration in medium (MDA-MB-231 cells) | intracellular accumulation compared to cisplatin (MDA-MB-231 cells; equimolar 2-8 µM) | concentration of free Pd/Pt in serum ultrafiltrate at 48 h [2] | Tmax [2] | bound to albumin (mostly via irreversible covalent bonds) [3]
[Cl][Pd-2]1([Cl])[NH2+]CCC[NH+]1CCCC[NH+]1CCC[NH2+][Pd-2]1([Cl])[Cl] (stereo not drawn) [Pd2Spm] | 74.2% | 82.7% | more extensive phosphorylation of H2AX histone | 3.1% | increase linearly with drug concentration | lower intracellular Pd2Spm increase as compared to cisplatin | increase linearly with drug concentration | lower intracellular Pd2Spm increase as compared to cisplatin | 2.3 ng/mL | 30 min | 
N.N.[Cl][Pt][Cl] [Cisplatin, cis-dichlorodiammine platinum(II), reference compound] |  |  |  |  | increase linearly with drug concentration |  | increase linearly with drug concentration |  | 4.1 ng/mL | 30 min | 
O=C(O)C(=O)O.[NH-][C@@H]1CCCC[C@H]1[NH-].[Pt+2] [oxaliplatin] |  |  |  |  |  |  |  |  |  |  | > 85%
